Several values for one entry are separate records, joined by “and”; a condition that tells them apart may be missing. Equal entries are not always repeated. Where two headings read alike, the source gives them in different places.
Assays:
Format in all cases: in vivo, Glycine max
[1] = system: transgenic soybean expressing mutated PPO; assay: Soybean T0 cuttings, greenhouse spray test (injury score 0-9, 1 week after treatment); details: for Injury score from 0-9: soybean T0 cuttings, 1 week after treatment
Source text: For testing of T0 plants, cuttings can be used. In the case of soybean plants, an optimal shoot for cutting is about 7.5 to 10 cm tall, with at least two nodes present. Each cutting is taken from the original transformant (mother plant) and dipped into rooting hormone powder (indole-3-butyric acid, IBA). The cutting is then placed in oasis wedges inside a bio-dome. Wild type cuttings are also taken simultaneously to serve as controls. The cuttings are kept in the bio-dome for 5-7 days and then transplanted to pots and then acclimated in the growth chamber for two more days. Subsequently, the cuttings are transferred to the greenhouse, acclimated for approximately 4 days, and then subjected to spray tests as indicated. Depending on the species, the plants are kept at 10-25° C. or 20-35° C. The test period extends over 3 weeks. During this time, the plants are tended and their response to the individual treatments is evaluated. Herbicide injury evaluations are taken at 2 and 3 weeks after treatment. Plant injury is rated on a scale of 0% to 100%, 0% being no injury and 100% being complete death.
Soybean cv Jake was transformed as previously described by Siminszky et al., Phytochem Rev. 5:445-458 (2006). After regeneration, transformants were transplanted to soil in small pots, placed in growth chambers (16 hr day/8 hr night; 25° C. day/23° C. night; 65% relative humidity; 130-150 microE m-2 s-1) and subsequently tested for the presence of the T-DNA via Taqman analysis. After a few weeks, healthy, transgenic positive, single copy events were transplanted to larger pots and allowed to grow in the growth chamber. An optimal shoot for cutting was about 3-4 inches tall, with at least two nodes present. Each cutting was taken from the original transformant (mother plant) and dipped into rooting hormone powder (indole-3-butyric acid, IBA). The cutting was then placed in oasis wedges inside a bio-dome. The mother plant was taken to maturity in the greenhouse and harvested for seed. Wild type cuttings were also taken simultaneously to serve as negative controls. The cuttings were kept in the bio-dome for 5-7 days and then transplanted to 3 inch pots and then acclimated in the growth chamber for two more days. […] Herbicide injury evaluations were taken at 2, 7, 14 and 21 days after treatment. Results are shown in Tables 11a-11i, and FIGS. 5, 6, and 7.
The following gives a definition of the injury scores measured above: […]

[2] = system: transgenic soybean expressing mutated PPO; assay: Soybean segregating T1 individuals, greenhouse spray test (injury 0-9); details: Saflufenacil 150 g ai/ha, 1 week after treatment
[3] = system: transgenic soybean expressing mutated PPO; details: T1 soybean, field

CC(C)N(C)S(=O)(=O)NC(=O)c1cc(-n2c(=O)cc(C(F)(F)F)n(C)c2=O)c(F)cc1Cl [Saflufenacil, saflufenacil]
injury score 1 WAT ([1]; Soy T0 AmtuPPX2L_R128L_F420V event 1, greenhouse, 100 g ai/ha): 4
injury score 1 WAT ([1]; Soy T0 AmtuPPX2L_R128L_F420V event 1, greenhouse, 200 g ai/ha): 6
injury score 1 WAT ([1]; Soy T0 AmtuPPX2L_R128L_F420V event 2, greenhouse, 100 g ai/ha): 1
injury score 1 WAT ([1]; Soy T0 AmtuPPX2L_R128L_F420V event 2, greenhouse, 200 g ai/ha): 2
Injury score from 0-9 ([1]; AmtuPPX2L (10 events), Kixor 12.5 + 1% MSO): 2
Injury score from 0-9 ([1]; AmtuPPX2L (10 events), Kixor 25 + 1% MSO): 4
Injury score from 0-9 ([1]; AmtuPPX2L (10 events), Kixor 50 + 1% MSO): 7
Injury score from 0-9 ([1]; AmtuPPX2L_F420L (7 events), Kixor 12.5 + 1% MSO): 1
Injury score from 0-9 ([1]; AmtuPPX2L_F420L (7 events), Kixor 25 + 1% MSO): 0
Injury score from 0-9 ([1]; AmtuPPX2L_F420L (7 events), Kixor 50 + 1% MSO): 0
Injury score from 0-9 ([1]; AmtuPPX2L_F420M (8 events), Kixor 25 + 1% MSO): 0
Injury score from 0-9 ([1]; AmtuPPX2L_F420M (8 events), Kixor 50 + 1% MSO): 3
Injury score from 0-9 ([1]; AmtuPPX2L_F420M (8 events), Kixor 100 + 1% MSO): 3
Injury score from 0-9 ([1]; AmtuPPX2L_R128A_F420I (9 events), Kixor 200 + 1% MSO): 1
Injury score from 0-9 ([1]; AmtuPPX2L_R128A_F420L (6 events), Kixor 25 + 1% MSO): 0
Injury score from 0-9 ([1]; AmtuPPX2L_R128A_F420L (6 events), Kixor 50 + 1% MSO): 1
Injury score from 0-9 ([1]; AmtuPPX2L_R128A_F420L (6 events), Kixor 100 + 1% MSO): 1
Injury score from 0-9 ([1]; AmtuPPX2L_R128A_F420M (7 events), Kixor 100 + 1% MSO): 2
Injury score from 0-9 ([1]; AmtuPPX2L_R128A_F420M (7 events), Kixor 200 + 1% MSO): 2
Injury score from 0-9 ([1]; AmtuPPX2L_R128A_F420V (14 events), Kixor 100 + 1% MSO): 2
Injury score from 0-9 ([1]; AmtuPPX2L_R128A_F420V (14 events), Kixor 200 + 1% MSO): 2
Injury score from 0-9 ([1]; AmtuPPX2L_dG210 (13 events), Kixor 25 + 1% MSO): 1
Injury score from 0-9 ([1]; AmtuPPX2L_dG210 (13 events), Kixor 50 + 1% MSO): 2
Injury score from 0-9 ([1]; AmtuPPX2L_dG210 (13 events), Kixor 100 + 1% MSO): 1
Injury score from 0-9 ([1]; AmtuPPX2L_dG210_R128L (12 events), Kixor 25 + 1% MSO): 0
Injury score from 0-9 ([1]; AmtuPPX2L_dG210_R128L (12 events), Kixor 50 + 1% MSO): 1
Injury score from 0-9 ([1]; AmtuPPX2L_dG210_R128L (12 events), Kixor 100 + 1% MSO): 1
Injury score from 0-9 ([1]; NitabPPX2 (13 events), Kixor 12.5 + 1% MSO): 3
Injury score from 0-9 ([1]; NitabPPX2 (13 events), Kixor 25 + 1% MSO): 6
Injury score from 0-9 ([1]; NitabPPX2 (13 events), Kixor 50 + 1% MSO): 9
Injury score from 0-9 ([1]; NitabPPX2_R98A_F392V (9 events), Kixor 50 + 1% MSO): 0
Injury score from 0-9 ([1]; NitabPPX2_R98A_F392V (9 events), Kixor 100 + 1% MSO): 2
Injury score from 0-9 ([1]; NitabPPX2_R98A_F392V (9 events), Kixor 200 + 1% MSO): 2
Injury score from 0-9 ([1]; wild type Jake variety, Kixor 12.5 + 1% MSO): 9
Injury score from 0-9 ([1]; wild type Jake variety, Kixor 25 + 1% MSO): 9
Injury score from 0-9 ([1]; wild type Jake variety, Kixor 50 + 1% MSO): 9
Injury score from 0-9 ([1]; wild type Jake variety, Kixor 100 + 1% MSO): 9
Injury score from 0-9 ([1]; wild type Jake variety, Kixor 200 + 1% MSO): 9
injury (0-9 point scale) ([2]; SDS10791 AmtuPPX2L R128A_F420I): 1 (2×) and 2 and 0 and 9 (4×)
injury (0-9 point scale) ([2]; SDS-10642 AmtuPPX2L R128A_F420L): 0 (6×) and 1 (2×)
injury (0-9 point scale) ([2]; SDS-10648 AmtuPPX2L R128A_F420I): 3 and 4 (3×) and 5 (3×) and 6
injury (0-9 point scale) ([2]; SDS-10652 AmtuPPX2L L397D_F420V): 3 (3×) and 5 (2×) and 4 (2×) and 6
injury (0-9 point scale) ([2]; SDS-10787 AmtuPPX2L R128A_F420L): 6 and 5 and 4 (4×) and 0 and 9
injury (0-9 point scale) ([2]; SDS-10985 AmtuPPX2L R128A_F420M): 0 (3×) and 1 (2×) and 3 and 2
injury (0-9 point scale) ([2]; SDS-10990 AmtuPPX2L R128A_F420M): 3 (4×) and 4 and 9 and 0 and 1
injury (0-9 point scale) ([2]; SDS-11034 AmtuPPX2L R128A_F420V): 0 (5×) and 5 and 1 and 2
injury (0-9 point scale) ([2]; wild type): 9
Injury rating (1-5 point scale) ([3]; AmtuPPX2L_R128A_F420V (event 10), saflufenacil: treatment 1 150 g ai/ha, treatment 2 0, 7 DAT): 3
Injury rating (1-5 point scale) ([3]; AmtuPPX2L_R128A_F420V (event 10), saflufenacil: treatment 1 300 g ai/ha, treatment 2 300 g ai/ha, 14 DAT): 3
Injury rating (1-5 point scale) ([3]; SDS-10533 LTM382-2 AmtuPPX2L_F420L, Saflufenacil (75 gai/ha), 3 days after treatment): 2.5
Injury rating (1-5 point scale) ([3]; SDS-10533 LTM382-2 AmtuPPX2L_F420L, Saflufenacil (150 gai/ha), 3 days after treatment): 2.5
Injury rating (1-5 point scale) ([3]; SDS-10544 LTM382-2 AmtuPPX2L_F420L, Saflufenacil (75 gai/ha), 3 days after treatment): 2.5
Injury rating (1-5 point scale) ([3]; SDS-10544 LTM382-2 AmtuPPX2L_F420L, Saflufenacil (150 gai/ha), 3 days after treatment): 2.5
Injury rating (1-5 point scale) ([3]; SDS-10558 LTM382-2 AmtuPPX2L_F420L, Saflufenacil (75 gai/ha), 3 days after treatment): 2.5
Injury rating (1-5 point scale) ([3]; SDS-10558 LTM382-2 AmtuPPX2L_F420L, Saflufenacil (150 gai/ha), 3 days after treatment): 2
Injury rating (1-5 point scale) ([3]; SDS-10562 LTM377-1 AmtuPPX2L_dG210, Saflufenacil (75 gai/ha), 3 days after treatment): 4
Injury rating (1-5 point scale) ([3]; SDS-10562 LTM377-1 AmtuPPX2L_dG210, Saflufenacil (150 gai/ha), 3 days after treatment): 4
Injury rating (1-5 point scale) ([3]; SDS-10566 LTM377-1 AmtuPPX2L_dG210, Saflufenacil (75 gai/ha), 3 days after treatment): 4
Injury rating (1-5 point scale) ([3]; SDS-10566 LTM377-1 AmtuPPX2L_dG210, Saflufenacil (150 gai/ha), 3 days after treatment): 4
Injury rating (1-5 point scale) ([3]; SDS-10633 LTM383-1 AmtuPPX2L_F420M, Saflufenacil (75 gai/ha), 3 days after treatment): 3
Injury rating (1-5 point scale) ([3]; SDS-10633 LTM383-1 AmtuPPX2L_F420M, Saflufenacil (150 gai/ha), 3 days after treatment): 3
Injury rating (1-5 point scale) ([3]; SDS-10635 LTM383-1 AmtuPPX2L_F420M, Saflufenacil (75 gai/ha), 3 days after treatment): 3.5
Injury rating (1-5 point scale) ([3]; SDS-10635 LTM383-1 AmtuPPX2L_F420M, Saflufenacil (150 gai/ha), 3 days after treatment): 3.5
Injury rating (1-5 point scale) ([3]; SDS-10642 LTM384-1 AmtuPPX2L_R128A_F420L, Saflufenacil (75 gai/ha), 3 days after treatment): 2
Injury rating (1-5 point scale) ([3]; SDS-10642 LTM384-1 AmtuPPX2L_R128A_F420L, Saflufenacil (150 gai/ha), 3 days after treatment): 2
Injury rating (1-5 point scale) ([3]; SDS-10645 LTM383-1 AmtuPPX2L_F420M, Saflufenacil (75 gai/ha), 3 days after treatment): 4
Injury rating (1-5 point scale) ([3]; SDS-10645 LTM383-1 AmtuPPX2L_F420M, Saflufenacil (150 gai/ha), 3 days after treatment): 3
Injury rating (1-5 point scale) ([3]; SDS-10646 LTM383-1 AmtuPPX2L_F420M, Saflufenacil (75 gai/ha), 3 days after treatment): 2.5
Injury rating (1-5 point scale) ([3]; SDS-10646 LTM383-1 AmtuPPX2L_F420M, Saflufenacil (150 gai/ha), 3 days after treatment): 2.5

Reference: US11866720B2, “Transgenic or non-transgenic plants with mutated protoporphyrinogen oxidase having increased tolerance to herbicides” (priority 2013, dated 2024)
